Target: T1, human liver glycogen phosphorylase a (HLGPa) (Homo sapiens, UniProt P06737)
T1 construct: creating a full-length cDNA fused at the 5′ end to codons for methionine-glycine-alanine-histidine; 6xHis tag (leader Met-Gly-Ala-His6-Gly-Gly) (N); made in house; host or cells: E. coli (bacterial expression plasmid pTXK1007LTev)
T1 sequence (P06737 2-847 limits assumed): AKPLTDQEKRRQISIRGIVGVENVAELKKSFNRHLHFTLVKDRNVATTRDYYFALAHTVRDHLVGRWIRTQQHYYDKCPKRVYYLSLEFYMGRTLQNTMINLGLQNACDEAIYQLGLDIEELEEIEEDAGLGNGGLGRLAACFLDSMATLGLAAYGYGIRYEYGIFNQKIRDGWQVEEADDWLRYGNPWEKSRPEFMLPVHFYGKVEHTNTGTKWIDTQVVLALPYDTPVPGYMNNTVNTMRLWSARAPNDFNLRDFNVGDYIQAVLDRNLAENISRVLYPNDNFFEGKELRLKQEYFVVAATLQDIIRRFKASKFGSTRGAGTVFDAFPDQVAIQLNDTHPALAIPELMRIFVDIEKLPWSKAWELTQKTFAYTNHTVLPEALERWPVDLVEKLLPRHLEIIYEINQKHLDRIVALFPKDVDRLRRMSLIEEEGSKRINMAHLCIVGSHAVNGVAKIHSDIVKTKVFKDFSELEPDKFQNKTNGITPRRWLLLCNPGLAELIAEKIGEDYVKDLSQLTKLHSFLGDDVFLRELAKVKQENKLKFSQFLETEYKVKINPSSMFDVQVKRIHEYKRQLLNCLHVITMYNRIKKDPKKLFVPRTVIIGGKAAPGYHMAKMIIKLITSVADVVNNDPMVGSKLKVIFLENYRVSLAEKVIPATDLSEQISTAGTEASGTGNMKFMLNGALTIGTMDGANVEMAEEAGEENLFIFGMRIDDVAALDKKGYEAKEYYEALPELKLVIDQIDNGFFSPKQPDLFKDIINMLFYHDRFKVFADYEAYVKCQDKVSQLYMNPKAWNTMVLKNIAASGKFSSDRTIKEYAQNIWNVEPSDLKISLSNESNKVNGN
Assay: Human liver glycogen phosphorylase a enzymatic activity assay (coupled, fluorescent resorufin readout, with and without 10 mM glucose)
Assay type: biochemical
Conditions: human liver glycogen phosphorylase a enzymatic activity assay

Row | Compound | IC50 [nM]
1 | Cc1cc(CC2CC2)cc(C)c1NC(=O)Nc1cc(-c2cccc(F)c2)ccc1C(=O)N[C@H](C(=O)O)[C@@H](C)OC(C)(C)C [Example 505, N-({3-[({[4-(cyclopropylmethyl)-2,6-dimethylphenyl]amino}carbonyl)amino]-3′-fluoro-4-biphenylyl}carbonyl)-O-(1,1-dimethylethyl)-L-threonine] | 3
2 | CCOC(=O)C[C@H](NC(=O)c1ccc(-c2cccc(F)c2)cc1NC(=O)Nc1c(C)cc(C)cc1C)C(=O)O [Example 506, (2S)-4-(ethyloxy)-2-({[3′-fluoro-3-({[(2,4,6-trimethylphenyl)amino]carbonyl}amino)-4-biphenylyl]carbonyl}amino)-4-oxobutanoic acid] | 1090
3 | Cc1cc(C)c(NC(=O)Nc2cc(-c3cccc(F)c3)ccc2C(=O)N[C@@H](CC(=O)O)C(=O)O)c(C)c1 [Example 507, N-{[3′-fluoro-3-({[(2,4,6-trimethylphenyl)amino]carbonyl}amino)-4-biphenylyl]carbonyl}-L-aspartic acid] | 53
4 | Cc1cc(C)c(NC(=O)Nc2cc3ccccc3cc2C(=O)N[C@@H](COCc2ccccc2)C(=O)O)c(C)c1 [Example 509, O-(Phenylmethyl)-N-{[3-({[(2,4,6-trimethylphenyl)amino]carbonyl}amino)-2-naphthalenyl]carbonyl}-L-serine] | 28
5 | Cc1cc(C)c(NC(=O)Nc2cc(-c3ccc(F)c(F)c3)ccc2C(=O)N[C@@H](COCc2ccccc2)C(=O)O)c(C)c1 [Example 510, N-{[3′,4′-Difluoro-3-({[(2,4,6-trimethylphenyl)amino]carbonyl}amino)-4-biphenylyl]carbonyl}-O-(phenylmethyl)-L-serine] | 42
6 | O=C(Nc1ccc(-c2ccccc2)cc1)Nc1cc2ccccc2cc1C(=O)NC1(C(=O)O)CCCCC1 [Example 513, 1-{[(3-{[(4-biphenylylamino)carbonyl]amino}-2-naphthalenyl)carbonyl]amino}cyclohexanecarboxylic acid] | 7430
7 | Cc1cc(C)c(NC(=O)Nc2cc3ccccc3cc2C(=O)N[C@@H](Cc2ccccc2)C(=O)O)c(C)c1 [Example 514, N-{[3-({[(2,4,6-trimethylphenyl)amino]carbonyl}amino)-2-naphthalenyl]carbonyl}-L-phenylalanine] | 52
8 | Cc1cc(C)c(NC(=O)Nc2cc(F)ccc2C(=O)N[C@@H](CCNC(=O)OC(C)(C)C)C(=O)O)c(C)c1 [Example 515, (2S)-4-({[(1,1-dimethylethyl)oxy]carbonyl}amino)-2-({[4-fluoro-2-({[(2,4,6-trimethylphenyl)amino]carbonyl}amino)phenyl]carbonyl}amino)butanoic acid] | 1900
9 | Cc1cc(C)c(NC(=O)Nc2cc3ccccc3cc2C(=O)N[C@@H](CCNC(=O)OC(C)(C)C)C(=O)O)c(C)c1 [Example 516, (2S)-4-({[(1,1-dimethylethyl)oxy]carbonyl}amino)-2-({[3-({[(2,4,6-trimethylphenyl)amino]carbonyl}amino)-2-naphthalenyl]carbonyl}amino)butanoic acid] | 89
10 | Cc1cc(-c2ccccc2)cc(C)c1NC(=O)Nc1cc2ccccc2cc1C(=O)NC1(C(=O)O)CCCCCC1 [Example 518, 1-({[3-({[(3,5-dimethyl-4-biphenylyl)amino]carbonyl}amino)-2-naphthalenyl]carbonyl}amino)cycloheptanecarboxylic acid] | 340
11 | Cc1cc(C)c(NC(=O)Nc2cc(-c3ccc(F)c(F)c3)ccc2C(=O)N[C@H](C(=O)O)[C@@H](C)OC2CCC2)c(C)c1 [Example 519, O-cyclobutyl-N-{[3′,4′-difluoro-3-({[(2,4,6-trimethylphenyl)amino]carbonyl}amino)-4-biphenylyl]carbonyl}-L-threonine] | 7
12 | Cc1cc(C)c(NC(=O)Nc2cc(F)ccc2C(=O)N[C@H](C(=O)O)[C@@H](C)OCc2ccccc2)c(C)c1 [Example 521, N-{[4-fluoro-2-({[(2,4,6-trimethylphenyl)amino]carbonyl}amino)phenyl]carbonyl}-O-(phenylmethyl)-L-threonine] | 134

Source: US20070249670A1, “Glycogen Phosphorylase Inhibitor Compounds and Pharmaceutical Compositions Thereof” (SMITHKLINE BEECHAM CORPORATION, priority 2004, published 2007)
